Active and inactive are the calls of the source.
Key:
Mucolipin-3 = Mucolipin-3 (Homo sapiens, UniProt Q8TDD5); assay: Fluorescence counterscreen assay for […] agonists: dose response cell-based high-throughput screening assay to identify agonists of the transient receptor potential channel ML3 (TRPML3). [Related pubchem assays: 1424, 1448 ]; format: functional
[1] = system: Streptococcus sp. 'group A'; assay: Streptococcus pyogenes SK(-)GAS viability under kanamycin – luminescence, BacTiterGlo, confirmation, counter-screen for streptokinase expression inhibitor project, dose response (AID 1900); format: functional, organism-based
Hexokinase-1 = molecular target: T1, Hexokinase-1 (Homo sapiens, UniProt P19367); assay: HK1 enzyme activation by HKDC1 hits – biochemical, selectivity assay for HKDC1 activator project, dose response (AID 504762); format: functional
T1 sequence (P19367 whole entry): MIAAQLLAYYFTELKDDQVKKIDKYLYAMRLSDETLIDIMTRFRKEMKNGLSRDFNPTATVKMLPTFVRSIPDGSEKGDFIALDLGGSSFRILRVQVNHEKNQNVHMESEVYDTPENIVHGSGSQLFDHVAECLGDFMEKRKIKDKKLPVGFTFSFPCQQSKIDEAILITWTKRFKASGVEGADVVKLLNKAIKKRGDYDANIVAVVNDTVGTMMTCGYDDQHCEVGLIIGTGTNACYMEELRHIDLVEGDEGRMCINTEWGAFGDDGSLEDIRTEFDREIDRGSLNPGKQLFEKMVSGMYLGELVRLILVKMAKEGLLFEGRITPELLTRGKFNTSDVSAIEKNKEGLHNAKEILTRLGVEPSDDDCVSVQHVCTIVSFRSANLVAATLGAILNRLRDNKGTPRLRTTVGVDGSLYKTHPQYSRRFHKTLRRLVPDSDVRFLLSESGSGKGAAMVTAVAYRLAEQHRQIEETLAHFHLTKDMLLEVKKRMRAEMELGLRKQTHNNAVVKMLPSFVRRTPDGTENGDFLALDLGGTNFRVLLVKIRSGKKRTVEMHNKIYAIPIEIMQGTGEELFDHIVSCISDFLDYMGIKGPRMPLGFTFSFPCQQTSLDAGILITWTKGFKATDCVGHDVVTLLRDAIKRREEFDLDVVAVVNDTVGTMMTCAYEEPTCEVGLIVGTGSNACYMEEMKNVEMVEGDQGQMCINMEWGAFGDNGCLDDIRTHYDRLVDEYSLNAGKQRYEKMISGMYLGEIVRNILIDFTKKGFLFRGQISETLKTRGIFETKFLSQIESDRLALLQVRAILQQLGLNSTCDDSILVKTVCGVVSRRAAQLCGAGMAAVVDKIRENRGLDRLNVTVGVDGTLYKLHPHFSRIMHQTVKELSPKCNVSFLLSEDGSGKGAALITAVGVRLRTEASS

Streptococcus = assay: GAS UMAA2166 growth inhibition – luminescence, BacTiterGlo, counter-screen for streptokinase expression inhibitor project, dose response (AID 1915); format: functional, organism-based;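 further: potency for reduction of bacterial viability or growth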
Hexokinase HKDC1 = molecular target: T2, Hexokinase HKDC1 (Homo sapiens, UniProt Q2TB90); assay: activation of HKDC1 glucose phosphorylation – biochemical, W721R variant, dose response (AID 504730); format: functional
T2 sequence (Q2TB90 whole entry): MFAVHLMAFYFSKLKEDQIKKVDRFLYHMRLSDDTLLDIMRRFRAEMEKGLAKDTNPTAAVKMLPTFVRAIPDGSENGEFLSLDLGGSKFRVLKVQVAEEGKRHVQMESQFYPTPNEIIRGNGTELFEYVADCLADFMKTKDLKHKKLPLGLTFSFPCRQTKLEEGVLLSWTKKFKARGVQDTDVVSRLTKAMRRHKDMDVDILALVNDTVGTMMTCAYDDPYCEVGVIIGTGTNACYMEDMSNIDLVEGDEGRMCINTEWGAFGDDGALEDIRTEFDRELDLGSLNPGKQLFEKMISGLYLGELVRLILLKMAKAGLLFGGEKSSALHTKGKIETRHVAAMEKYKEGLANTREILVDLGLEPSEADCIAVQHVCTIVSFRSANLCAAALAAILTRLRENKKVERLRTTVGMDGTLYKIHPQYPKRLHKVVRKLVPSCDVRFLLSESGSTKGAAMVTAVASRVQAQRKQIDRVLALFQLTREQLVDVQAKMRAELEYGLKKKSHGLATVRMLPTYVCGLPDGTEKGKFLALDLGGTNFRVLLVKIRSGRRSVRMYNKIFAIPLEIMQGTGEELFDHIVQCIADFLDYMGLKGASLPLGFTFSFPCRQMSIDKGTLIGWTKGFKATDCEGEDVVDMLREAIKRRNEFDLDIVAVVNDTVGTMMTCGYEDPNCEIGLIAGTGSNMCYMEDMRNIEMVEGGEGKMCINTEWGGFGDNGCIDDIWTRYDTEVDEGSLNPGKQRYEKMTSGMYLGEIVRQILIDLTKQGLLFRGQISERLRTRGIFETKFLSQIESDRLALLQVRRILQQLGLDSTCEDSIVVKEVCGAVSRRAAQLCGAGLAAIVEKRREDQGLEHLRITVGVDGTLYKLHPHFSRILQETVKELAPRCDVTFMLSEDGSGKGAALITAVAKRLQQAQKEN

Ion channel NompC = Ion channel NompC (Danio rerio, UniProt Q7T1G6); assay: Dose response cell-based high-throughput screening assay for agonists of the transient receptor potential channel N1 (TRPN1). [Related pubchem assays (depositor defined):AID1424, AID1448]; format: functional
[2] = molecular target: T3, Short transient receptor potential channel 4 (Mus musculus, UniProt Q9QUQ5); assay: calcium entry via TRPC4 opening agents – cell-based, HEK293 TRPC4/mu-opioid, Fluo-4 calcium, dose response (AID 434937); format: functional
T3 sequence (Q9QUQ5 whole entry): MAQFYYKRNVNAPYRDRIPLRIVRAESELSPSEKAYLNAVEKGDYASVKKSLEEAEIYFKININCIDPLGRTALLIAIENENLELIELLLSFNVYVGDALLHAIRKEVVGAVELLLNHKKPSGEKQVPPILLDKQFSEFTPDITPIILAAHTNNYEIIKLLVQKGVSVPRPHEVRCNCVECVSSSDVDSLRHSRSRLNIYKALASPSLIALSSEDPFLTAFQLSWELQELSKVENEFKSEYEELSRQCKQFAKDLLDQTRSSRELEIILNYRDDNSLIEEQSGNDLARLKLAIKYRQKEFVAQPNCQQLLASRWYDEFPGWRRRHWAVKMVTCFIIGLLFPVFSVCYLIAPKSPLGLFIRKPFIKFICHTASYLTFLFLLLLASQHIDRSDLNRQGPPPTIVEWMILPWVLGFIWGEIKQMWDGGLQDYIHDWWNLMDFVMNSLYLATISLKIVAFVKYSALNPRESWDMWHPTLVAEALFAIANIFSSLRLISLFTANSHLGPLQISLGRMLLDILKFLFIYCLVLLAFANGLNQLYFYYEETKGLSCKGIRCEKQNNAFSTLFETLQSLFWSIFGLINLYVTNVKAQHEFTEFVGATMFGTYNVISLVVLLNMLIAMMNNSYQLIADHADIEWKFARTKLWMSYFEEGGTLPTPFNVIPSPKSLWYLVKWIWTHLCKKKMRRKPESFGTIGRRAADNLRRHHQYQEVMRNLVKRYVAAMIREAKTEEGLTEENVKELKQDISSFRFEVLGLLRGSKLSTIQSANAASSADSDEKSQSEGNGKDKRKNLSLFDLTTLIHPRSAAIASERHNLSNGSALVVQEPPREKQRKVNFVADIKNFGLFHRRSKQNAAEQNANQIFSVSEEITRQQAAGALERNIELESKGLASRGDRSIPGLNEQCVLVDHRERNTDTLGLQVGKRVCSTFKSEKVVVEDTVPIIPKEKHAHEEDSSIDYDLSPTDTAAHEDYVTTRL

[3] = molecular target: T4, E3 ubiquitin-protein ligase XIAP (Homo sapiens, UniProt P98170); assay: small molecules displacing peptide from XIAP – biochemical, IAP family, fluorescence polarization (AID 1018); format: functional
[4] = molecular target: T4, E3 ubiquitin-protein ligase XIAP; assay: Counter Screen using XIAP-Bir3 for Chemical Antagonists of Bir1/2 domains of IAP-family anti-apoptotic proteins. [Related pubchem assays (depositor defined):AID1018, AID1449, AID1514, AID1638, AID1749, AID1750, AID488957, AID488963]
[5] = molecular target: Protein-tyrosine kinase 2-beta (Homo sapiens, UniProt Q14289);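 further: potency of inhibitors of PYK2 kinase phosphorylation of poly-GT substrate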
[6] = molecular target: Peroxisome proliferator-activated receptor gamma/Nuclear receptor coactivator 1 (Homo sapiens, UniProt P37231); assay: TR-FRET dose response biochemical High Throughput Screening assay for agonists of the steroid receptor coactivator 1 (SRC-1) recruitment by the peroxisome proliferator-activated receptor gamma (PPAR gamma): non-selective agonists. [Related pubchem assays (depositor defined):AID1300, AID1808, AID504735, AID631]; format: protein assay
[7] = molecular target: Peroxisome proliferator-activated receptor gamma/Nuclear receptor coactivator 2 (Homo sapiens, UniProt P37231); assay: (§1) TR-FRET dose response biochemical High Throughput Screening assay for agonists of the steroid receptor coactivator 2 (SRC-2) recruitment by the peroxisome proliferator-activated receptor gamma (PPAR gamma): non-selective agonists. [Related pubchem assays: 1297, 1032 ]; format: functional
[8] = molecular target: Peroxisome proliferator-activated receptor gamma/Nuclear receptor coactivator 3 (Homo sapiens, UniProt P37231); assay: as §1, with “3 (SRC-3)” for “2 (SRC-2)”, “1301 (Confirmation screen.), 1048 (Primary screen.)]” for “1297, 1032 ]”; format: functional
Major prion protein = Major prion protein (Homo sapiens, UniProt P04156); format: functional, cell-based
[9] = molecular target: T5, Peroxisome proliferator-activated receptor gamma (Homo sapiens, UniProt P37231); assay: PPARg transcriptional activation, reporter cells – cell-based, luminescence, assay provider, dose response (AID 504447); format: functional
T5 sequence (P37231 whole entry): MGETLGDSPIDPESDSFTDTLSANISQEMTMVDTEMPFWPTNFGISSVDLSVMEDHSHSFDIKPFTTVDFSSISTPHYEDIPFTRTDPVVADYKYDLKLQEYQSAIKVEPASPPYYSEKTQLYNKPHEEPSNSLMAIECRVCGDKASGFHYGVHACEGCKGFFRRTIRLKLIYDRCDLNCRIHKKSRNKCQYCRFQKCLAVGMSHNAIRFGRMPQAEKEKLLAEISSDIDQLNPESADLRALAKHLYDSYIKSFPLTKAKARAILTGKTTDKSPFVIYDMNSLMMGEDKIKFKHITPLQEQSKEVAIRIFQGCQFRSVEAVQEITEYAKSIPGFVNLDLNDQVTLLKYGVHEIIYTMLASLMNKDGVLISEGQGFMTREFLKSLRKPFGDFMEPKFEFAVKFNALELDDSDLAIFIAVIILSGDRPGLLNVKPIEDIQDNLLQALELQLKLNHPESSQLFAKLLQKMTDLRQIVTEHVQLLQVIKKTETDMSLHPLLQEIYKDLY

Compound: Cc1onc(-c2ccccc2)c1C(=O)NNC(=S)NC(=O)c1ccc(Br)cc1
- EC50 (Mucolipin-3): 1.03 µM (active)
- EC50 [1]: 0.472 µM (active)
- EC50 (Hexokinase-1): > 80 µM (inactive)
- EC50 (Streptococcus): 1.52 µM (active)
- EC50 (Hexokinase HKDC1): 6.58 µM (active)
- EC50 (Ion channel NompC): 0.604 µM (active)
- EC50 [2]: 1.88 µM (active)

Compound: CCOc1ccc(N(CC(=O)O)S(=O)(=O)c2ccc(F)cc2)cc1
- EC50 (Mucolipin-3): > 29.9 µM (not active)
- EC50 (Ion channel NompC): > 29.9 µM (inactive)

Compound: CC(C)N(CC#CCC(O)(c1ccccc1)c1ccccc1)CCO
- IC50 [3]: > 100 µM (not active)
- IC50 [4]: > 100 µM (inactive)

Compound: COc1ccc(OC)c(NS(=O)(=O)Cc2ccccc2)c1
- IC50 [3]: > 100 µM (not active)
- IC50 [4]: > 100 µM (inactive)
- IC50 [5]: 12 µM (not active)

Compound: COC(=O)c1cc(Cl)c(NC(=O)c2cc3ccccc3o2)cc1OC
- EC50 [6]: 7.17 µM (active)
- EC50 [7]: 12.3 µM (not active)
- EC50 [8]: 63 µM (not active)

Compound: CC(=O)CSc1nc(-c2cccs2)c(C#N)c(=O)[nH]1
- EC50 [6]: > 79.4 µM (inactive)
- IC50 (Major prion protein): 2.27 µM (active)
- EC50 [7]: > 79.4 µM (not active)
- EC50 [8]: > 79.4 µM (not active)

Compound: COc1ccc2c(c1)c(=O)c(C(=O)c1ccc(F)cc1)cn2CC(=O)Nc1ccc(F)cc1
- EC50 [9]: 1.8 µM (active)
